Experimental data taken from patent US4663458A, “Water soluble salt composition of m-AMSA” (Bristol-Myers Company, priority 1985, dated 1987).
Structures can show the parent of a compound that is named as a salt.

Assays:
[1] = Storage stability / precipitation of m-AMSA lactate aqueous solutions
[2] = Aqueous solubility of m-AMSA base and salts
[3] = prior art; cited from earlier work
animal tumor systems = settings: Cain et al., Europ. J. Cancer 10:539-549 (1974); cited from earlier work

In the case of `COc1cc(NS(C)(=O)=O)ccc1Nc1c2ccccc2nc2ccccc12` [m-AMSA L(+)-lactate monohydrate salt], the stability ([1]; for use as an intravenous drug) is reported as “the stability necessary for use as an intravenous drug”, the reconstitution rates [2] is reported as “excellent” and the solubility ([2]; water) is reported as roughly 2500 µg/mL.

With `COc1cc(NS(C)(=O)=O)ccc1Nc1c2ccccc2nc2ccccc12` [m-AMSA lactate salts] the “precipitation under extended storage” value ([1]; concentrations as high as 5 mg/ml, extended storage at 24° C.) was “can result in precipitates”.

For `COc1cc(NS(C)(=O)=O)ccc1Nc1c2ccccc2nc2ccccc12` [m-AMSA, 4'9-(acridinylamino) methanesulfon-m-anisidide], the solubility in water [3] is listed as “very limited solubility in water” and the antitumor activity (animal tumor systems) is listed as “significant antitumor activity”.

For `COc1cc(NS(C)(=O)=O)ccc1Nc1c2ccccc2nc2ccccc12` [monohydrochloride], the solubility in water [3] is given as “insufficiently water-soluble”.

For `COc1cc(NS(C)(=O)=O)ccc1Nc1c2ccccc2nc2ccccc12` [monomethanesulfonate], the solubility in water [3] is given as “insufficiently water-soluble”.
